ChEMBL document CHEMBL2169752, “Kallikrein protease activated receptor (PAR) axis: an attractive target for drug development” (J Med Chem, 2012)
Numbered stars: 1 amine (or outer) side, 2 acyl side, 3 side chain; on linkers, the order of the positions; unused ones are H or OH. Square brackets hold non-standard residues; d marks the D form. Peptide text beside a SMILES is read from it. * marks the point of attachment. EDDnp = O=[N+]([O-])c1ccc(NCCN*)c([N+](=O)[O-])c1; X1 = NCC1CCC(C[C@H](N[*:1])C(=O)[*:2])CC1; 2Abz = Nc1ccccc1C(=O)O

What was measured:
[1] = target: T1, Prostate-specific antigen (Homo sapiens, UniProt P07288); experiment: Inhibition of KLK3
T1 sequence (P07288 whole entry): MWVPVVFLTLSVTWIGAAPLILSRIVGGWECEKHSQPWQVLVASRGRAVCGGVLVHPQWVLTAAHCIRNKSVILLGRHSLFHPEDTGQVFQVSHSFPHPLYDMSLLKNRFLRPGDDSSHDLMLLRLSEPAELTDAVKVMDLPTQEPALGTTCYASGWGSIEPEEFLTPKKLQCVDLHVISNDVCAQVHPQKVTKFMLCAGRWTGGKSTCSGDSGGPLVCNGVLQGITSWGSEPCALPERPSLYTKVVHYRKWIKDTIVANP

[2] = target: T2, Kallikrein-1 (Homo sapiens, UniProt P06870); experiment: Inhibition of human KLK1
[3] = target: T2, Kallikrein-1; experiment: Inhibition of human KLK1 using Pro-Phe-Arg-MCA as substrate for 2 mins by spectrophotometric analysis

T2 sequence (P06870 whole entry): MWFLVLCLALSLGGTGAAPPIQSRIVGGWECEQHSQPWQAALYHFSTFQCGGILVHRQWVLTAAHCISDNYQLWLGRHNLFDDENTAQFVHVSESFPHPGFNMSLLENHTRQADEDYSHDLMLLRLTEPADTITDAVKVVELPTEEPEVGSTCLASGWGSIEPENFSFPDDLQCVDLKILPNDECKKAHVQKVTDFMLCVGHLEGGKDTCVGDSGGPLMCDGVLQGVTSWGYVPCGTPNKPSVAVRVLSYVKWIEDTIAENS

In the case of `COc1ccc(C(=O)n2nc(-c3cccnc3)nc2C)cc1OC`, the Ki [1] is reported as 0.5 µM.

`NC(=O)[C@H](CCCN=C(N)N)NC(=O)[C@H](CO)NC(=O)[C@H](CC1CCC(N)CC1)NC(=O)Cc1ccccc1` (mixture of isomers) showed a Ki [2] of 0.11 µM.

Work on `Cc1c(-c2nc3ccccc3c(=O)o2)cccc1[N+](=O)[O-]` yielded a Ki [1] of 0.3 µM.

In the case of `CC(=O)N[C@H](CCCCN)C(=O)N[C@@H](Cc1ccccc1)C(=O)N[C@@H](Cc1ccccc1)C(=O)N1CCC[C@H]1C(=O)N[C@@H](CC(C)C)C(=O)N[C@@H](CCC(=O)O)C(N)=O`, the Ki [3] is reported as 0.008 µM.

Compound `N=C(N)NCCC[C@H](NC(=O)[C@H](CO)NC(=O)[C@H](CC1CCC(CN)CC1)NC(=O)[C@H](Cc1ccccc1)NC(=O)c1ccccc1N)C(=O)N[C@@H](CCC(N)=O)C(=O)NCCNc1ccc([N+](=O)[O-])cc1[N+](=O)[O-]` (stereo not given in full) (H-[2Abz]F[X1]SRQ-EDDnp) has a Ki [2] of 0.05 µM.
